# From patent publication US9266834B2, “1, 4-disubstituted 3-cyano-pyridone derivatives and their use as positive allosteric modulators of MGLUR2-receptors” (JANSSEN PHARMACEUTICALS, INC., priority 2006, dated 2016)
# Key:
# human mGluR2 receptor = target: T1, human mGluR2 receptor (Homo sapiens, UniProt Q14416); assay: [35S]GTPγS binding assay (GTPγS-PAM): positive allosteric modulation in presence of glutamate at EC25, membranes from transfected CHO cells; assay type: biochemical; conditions: in presence of mGluR2 agonist glutamate at predetermined EC25 concentration, averages of duplicate values of 11-concentration response curves, read-out: GTPgS - hR2 PAM pEC50 (converted)
# T1 construct: expressed in transfected cells; host or cells: CHO cells (membrane preparation)
# T1 sequence (Q14416 19-872): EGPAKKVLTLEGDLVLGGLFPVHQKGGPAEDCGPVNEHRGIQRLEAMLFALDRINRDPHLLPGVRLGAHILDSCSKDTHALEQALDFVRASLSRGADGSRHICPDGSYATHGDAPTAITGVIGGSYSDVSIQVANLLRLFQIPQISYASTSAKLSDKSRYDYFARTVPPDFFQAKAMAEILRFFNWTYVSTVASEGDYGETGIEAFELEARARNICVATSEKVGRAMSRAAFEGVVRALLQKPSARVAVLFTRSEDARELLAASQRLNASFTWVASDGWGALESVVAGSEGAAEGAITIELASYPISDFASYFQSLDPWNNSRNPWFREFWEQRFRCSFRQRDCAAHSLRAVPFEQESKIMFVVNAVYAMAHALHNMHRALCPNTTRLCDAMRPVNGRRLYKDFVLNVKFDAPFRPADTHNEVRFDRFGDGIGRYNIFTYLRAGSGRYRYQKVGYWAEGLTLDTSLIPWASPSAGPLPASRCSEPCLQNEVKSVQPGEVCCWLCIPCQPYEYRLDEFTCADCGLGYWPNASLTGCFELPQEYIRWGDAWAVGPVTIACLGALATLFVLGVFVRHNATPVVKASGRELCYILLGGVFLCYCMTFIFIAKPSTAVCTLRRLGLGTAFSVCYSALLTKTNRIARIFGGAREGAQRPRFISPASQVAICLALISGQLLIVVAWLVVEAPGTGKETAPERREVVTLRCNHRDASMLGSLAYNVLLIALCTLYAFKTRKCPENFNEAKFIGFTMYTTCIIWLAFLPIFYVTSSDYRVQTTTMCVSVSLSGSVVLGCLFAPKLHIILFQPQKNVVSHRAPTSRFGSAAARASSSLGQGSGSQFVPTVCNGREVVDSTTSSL
# In short: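 Potentiation was read as filter-retained [35S]GTPγS (0.1 nM final, 30 min, 30° C.) after a 30 min, 30° C. preincubation of human mGluR2 CHO membranes (15 μg/well) with EC25 glutamate and 11 modulator concentrations spanning 0.3 nM-50 μM. The buffer was 50 mM HEPES pH 7.4, NaCl, MgCl2, 50 μM GDP and saponin. Cold 10 μM GTP defined nonspecific binding; data were fitted by a four-parameter logistic.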
Compound,EC50 (human mGluR2 receptor),melting point
CC(C)CCn1ccc(-c2ccc(OCc3ccc(C#N)cc3)cc2)c(C#N)c1=O [1-153],50.1 nM,171 °C
CC(C)CCn1ccc(-c2ccc(Oc3ccncc3)cc2)c(C#N)c1=O [1-156],501 nM,139 °C
CC(C)CCn1ccc(-c2ccc(OCc3ccncc3)cc2)c(C#N)c1=O [1-159],501 nM,171 °C
CC(C)CCn1ccc(-c2ccc(OCc3ccncc3)cc2F)c(C#N)c1=O [1-162],398 nM,156 °C
CC(C)CCn1ccc(-c2ccc(OCc3ccc(Cl)nc3)cc2)c(C#N)c1=O [1-164],158 nM,165 °C
Cc1nc(COc2ccc(-c3ccn(CCC(C)C)c(=O)c3C#N)cc2)cs1 [1-169],501 nM,144 °C
CC(C)CCn1ccc(-c2ccc(CN(C)C)cc2)c(C#N)c1=O [1-173],6310 nM,130 °C
CC(=O)Nc1ccc(-c2ccn(CCC(C)C)c(=O)c2C#N)cc1 [1-176],5010 nM,198 °C
CC(=O)N(C)Cc1ccc(-c2ccn(CCC(C)C)c(=O)c2C#N)cc1 [1-177],3980 nM,112 °C
"CC(=O)NCc1ccc(-c2ccn(CCC(C)C)c(=O)c2C#N)cc1 [1-179, 4-(4-(N-acetylmethyl)phenyl)-3-cyano-1-(3-methylbutyl)pyridine-2(1H)-one]",3160 nM,144 °C
CC(C)CCn1ccc(-c2ccc(NCC#N)cc2)c(C#N)c1=O [1-186],794 nM,269 °C
CC(C)CCn1ccc(-c2ccc(NCCC3(C)OCCO3)cc2)c(C#N)c1=O [1-192],501 nM,119 °C
CC(C)CCn1ccc(-c2ccc(NCc3cccc(F)c3)cc2)c(C#N)c1=O [1-199],63.1 nM,136 °C
CC(C)CCn1ccc(-c2ccc(NCc3ccc(F)cc3)cc2)c(C#N)c1=O [1-200],79.4 nM,162 °C
CC(C)CCn1ccc(-c2ccc(NCc3cccc(Cl)c3)cc2)c(C#N)c1=O [1-202],31.6 nM,146 °C
COc1ccc(CNc2ccc(-c3ccn(CCC(C)C)c(=O)c3C#N)cc2)cc1 [1-203],316 nM,173 °C
CC(C)CCn1ccc(-c2ccc(NCc3cccc(C#N)c3)cc2)c(C#N)c1=O [1-204],25.1 nM,157 °C
CC(C)CCn1ccc(-c2ccc(NCc3ccc(C#N)cc3)cc2)c(C#N)c1=O [1-206],50.1 nM,209 °C
CC(C)CCn1ccc(-c2ccc(NCc3ccncc3)cc2)c(C#N)c1=O [1-210],1000 nM,73 °C
CC(C)CCn1ccc(-c2ccc(CN(C)Cc3ccncc3)cc2)c(C#N)c1=O [1-211],631 nM,142 °C
COC(=O)CCc1ccc(-c2ccn(CCC(C)C)c(=O)c2C#N)cc1 [1-239],794 nM,120 °C
CC(C)CCn1ccc(-c2ccc(CC(=O)N(C)C)cc2)c(C#N)c1=O [1-244],6310 nM,122 °C
CC(C)CCn1ccc(-c2ccc(C(=O)N(C)Cc3ccccc3)cc2)c(C#N)c1=O [1-245],794 nM,135 to 140 °C
CC(C)CCn1ccc(-c2ccc(C(C#N)c3ccn(CCC(C)C)c(=O)c3C#N)cc2)c(C#N)c1=O (centres unmarked) [1-255],794 nM,233 °C
COc1ccc(CCc2ccn(CCC(C)C)c(=O)c2C#N)cc1 [1-265],1260 nM,88 °C
CC(C)CCn1ccc(C#Cc2ccc(N(C)C)cc2)c(C#N)c1=O [1-270],100 nM,166 °C
CCOC(=O)c1ccc(-c2cccc(COc3ccn(CCC(C)C)c(=O)c3C#N)c2)cc1 [1-290],158 nM,148 °C
CCCCn1ccc(Nc2ccc(Oc3cccnc3)cc2)c(C#N)c1=O [1-296],1580 nM,151 °C

# Next, values leading:
EC50 (human mGluR2 receptor),melting point,Compound
501 nM,132 °C,CC(C)CCn1ccc(-c2ccc(Oc3cccnc3)cc2)c(C#N)c1=O [1-155]
398 nM,162 °C,CC(C)CCn1ccc(-c2ccc(OCc3ccccn3)cc2)c(C#N)c1=O [1-157]
501 nM,142 °C,CC(C)CCn1ccc(-c2ccc(OCc3cccnc3)cc2)c(C#N)c1=O [1-158]
79.4 nM,202 °C,CC(C)CCn1ccc(-c2ccc(OCc3ccc(C(F)(F)F)nc3)cc2)c(C#N)c1=O [1-163]
501 nM,189 °C,CNc1ccc(-c2ccn(CCC(C)C)c(=O)c2C#N)cc1 [1-171]
126 nM,137 °C,CC(C)CCn1ccc(-c2ccc(N(C)C)cc2)c(C#N)c1=O [1-172]
1000 nM,294 °C,CC(C)CCn1ccc(-c2ccc(CN(C)Cc3ccccn3)cc2)c(C#N)c1=O [1-212]
3160 nM,70 °C,CC(C)CCn1ccc(-c2cccc(NS(C)(=O)=O)c2)c(C#N)c1=O [1-215]
1260 nM,213 °C,CC(C)CCn1ccc(-c2ccc(N3CCC(O)CC3)cc2)c(C#N)c1=O [1-220]
2000 nM,171 °C,"CC(C)CCn1ccc(-c2ccc(N3CCOCC3)cc2)c(C#N)c1=O [1-223, 3-cyano-4-(4-(N-morpholyl)phenyl)-1-(3-methylbutyl)pyridine-2(1H)-one]"
2000 nM,151 °C,COc1cc(-c2ccn(CCC(C)C)c(=O)c2C#N)ccc1N1CCOCC1 [1-225]
126 nM,118 °C,CC(C)CCn1ccc(-c2ccc(N3CCOCC3)c(Br)c2)c(C#N)c1=O [1-226]
501 nM,162 °C,CC(C)CCn1ccc(-c2ccc(N3CC(C)OC(C)C3)cc2)c(C#N)c1=O (centres unmarked) [1-227]
79.4 nM,148 °C,CC(C)CCn1ccc(-c2ccc(N3CCOc4ccccc43)cc2)c(C#N)c1=O [1-228]
501 nM,143 °C,CC(=O)N1CCN(c2cccc(-c3ccn(CCC(C)C)c(=O)c3C#N)c2)CC1 [1-230]
3160 nM,130 °C,CC(=O)c1ccc(-c2ccn(CCC(C)C)c(=O)c2C#N)cc1 [1-238]
398 nM,217 °C,CC(C)CCn1ccc(-c2ccc(C(=O)N3CCN(Cc4ccc(OC(F)(F)F)c(Cl)c4)CC3)cc2)c(C#N)c1=O [1-247]
1260 nM,117 °C,CC(C)CCn1ccc(-c2ccc3c(c2)CCO3)c(C#N)c1=O [1-251]
6310 nM,120 to 121 °C,CC(C)CCn1ccc(-c2ccc3c(c2)OCO3)c(C#N)c1=O [1-252]
2510 nM,122 °C,CC(C)CCn1ccc(-c2ccc(CC#N)cc2)c(C#N)c1=O [1-254]

EC50 (human mGluR2 receptor),melting point,Compound
158 nM,128 °C,CSc1ccc(-c2ccn(CCC(C)C)c(=O)c2C#N)cc1 [1-256]
1260 nM,174 °C,CC(C)CCn1ccc(OCc2ccccc2)c(C#N)c1=O [1-275]
398 nM,116 °C,CC(C)CCn1ccc(OCc2cccc(OC(F)(F)F)c2)c(C#N)c1=O [1-279]
794 nM,153 °C,COc1ccc(Oc2ccn(CCC(C)C)c(=O)c2C#N)cc1 [1-282]
631 nM,190 °C,CC(C)CCn1ccc(OCc2ccc(OC(F)F)cc2)c(C#N)c1=O [1-284]
1000 nM,169 °C,CC(C)CCn1ccc(OC2Cc3ccccc3C2)c(C#N)c1=O [1-288]
1260 nM,154 °C,CC(C)CCn1ccc(OCc2ccc(CN3CCOCC3)cc2)c(C#N)c1=O [1-292]
2510 nM,209 °C,CC(C)CCn1ccc(OCCN(C)Cc2cccc(F)c2)c(C#N)c1=O [1-293]
3160 nM,183 °C,CCCCn1ccc(N2CCN(Cc3cc(F)cc(C(F)(F)F)c3)CC2)c(C#N)c1=O [2-001]
316 nM,127 °C,CCCCn1ccc(N2CCN(Cc3ccc(OC(F)(F)F)c(Cl)c3)CC2)c(C#N)c1=O [2-002]
158 nM,134 °C,CCCCn1ccc(N2CCN(Cc3ccc(OCC4CC4)c(Cl)c3)CC2)c(C#N)c1=O [2-003]
1000 nM,112 °C,CC(C)Cn1ccc(N2CCN(Cc3ccc(OC(F)(F)F)c(Cl)c3)CC2)c(C#N)c1=O [2-010]
158 nM,256 °C,CC(C)CCn1ccc(N2CCN(Cc3ccc(OC(F)(F)F)c(Cl)c3)CC2)c(C#N)c1=O [2-022]
200 nM,135 °C,CC(C)CCn1ccc(N2CCN(c3ncccc3C(F)(F)F)CC2)c(C#N)c1=O [2-026]
251 nM,155 °C,CC(C)CCn1ccc(N2CCN(c3nccc(C(F)(F)F)n3)CC2)c(C#N)c1=O [2-029]
1000 nM,288 °C,CC(C)CCn1ccc(N2CCN(c3nc4ccccc4o3)CC2)c(C#N)c1=O [2-035]
1000 nM,223 °C,CC(C)CCn1ccc(C(=O)N2CCN(c3ncccn3)CC2)c(C#N)c1=O [2-037]
5010 nM,140 °C,N#Cc1c(N2CCN(Cc3cc(F)cc(C(F)(F)F)c3)CC2)ccn(CC2CC2)c1=O [2-038]
794 nM,125 °C,N#Cc1c(N2CCN(Cc3ccc(OC(F)(F)F)c(Cl)c3)CC2)ccn(CC2CC2)c1=O [2-039]
